Measurements taken from US10258039B2, “Substituted pyrazolylpyrazole derivative and use of same as herbicide” (KYOYU AGRI CO., LTD., priority 2015, dated 2019).

Legend:
Assay type in all cases: in vivo
[1] = test system: Digitaria ciliaris; assay: Weed foliar treatment test (Test 4, 4.0 to 5.0 leaf stage); settings: 10g a.i./10a; foliar spray at 4.0 to 5.0 leaf stage of Digitaria ciliaris (plant height 10 cm to 15 cm); 20 days, 25° C.
Protocol: (§1) 4. Weed Foliar Treatment Test
(§2) Field soil was filled into a 1/4500 are pot followed by seeding with Digitaria ciliaris and Galinsoga parviflora, covering with soil and cultivating in a glass greenhouse at an average atmospheric temperature of 25° C.
(§3) Wettable powders of Target Compound (I) shown in Table 1 prepared in compliance with the preparation examples were diluted with water to the prescribed amount of chemical and uniformly sprayed onto the weeds using 100 liters of sprayed water per 10 are when Digitaria ciliaris had grown to the 4.0 to 5.0 leaf stage (plant height: 10 cm to 15 cm).
(§4) After treating for 20 days in a glass greenhouse at an average atmospheric temperature of 25° C., the herbicidal efficacy thereof was investigated.
(§5) Evaluation of herbicidal efficacy was carried out in the same manner as the above-mentioned Test Example 1.

[2] = test system: Galinsoga parviflora; assay: as above; settings: 10g a.i./10a; foliar spray at 4.0 to 5.0 leaf stage of Digitaria ciliaris; 20 days, 25° C.
Protocol: as §1, §2, §3, §4, §5

[3] = test system: Amaranthus retroflexus; assay: Farming soil treatment test; settings: soil surface spray prior to weed growth, 30 days, 30° C.
Protocol: (§6) 2. Farming Soil Treatment Test
(§7) Field soil was filled into a 1/6000 are pot followed by seeding with Digitaria ciliaris, Chenopodium album and Amaranthus retroflexus and covering with soil.
(§8) Wettable powders of compounds of formula (I) shown in Table 1 prepared in compliance with the preparation examples were diluted with water to the prescribed amount of chemical and uniformly sprayed onto each soil surface layer using 100 liters of sprayed water per 10 are prior to weed growth following seeding.
(§9) After treating for 30 days in a glass greenhouse at an average atmospheric temperature of 30° C., the herbicidal efficacy thereof was investigated.
as §5

[4] = test system: Chenopodium album; assay: Farming soil treatment test; settings: soil surface spray prior to weed growth, 30 days, 30° C.
Protocol: as §6, §7, §8, §9, §5

[5] = test system: Digitaria ciliaris; assay: Farming soil treatment test; settings: soil surface spray prior to weed growth, 30 days, 30° C.
Protocol: as §6, §7, §8, §9, §5

Row | SMILES | herbicidal efficacy, Digitaria ciliaris [1] | herbicidal efficacy, Galinsoga parviflora [2] | also measured
1 | N#Cc1cnn(-c2nn3c(c2Cl)CCCC3)c1NC(=O)C1CCCC1 [Compound 5] | 10 (10: 100%) | 10 (10: 100%) | 
2 | N#Cc1cnn(-c2nn3c(c2Cl)CCCC3)c1NC(=O)C1CCC1 [Compound 4] | 10 (10: 100%) | 10 (10: 100%) | 
3 | N#Cc1cnn(-c2nn3c(c2Cl)CCCC3)c1NC(=O)CCC1CCCC1 [Compound 30] | 10 (10: 100%) | 10 (10: 100%) | 
4 | N#Cc1cnn(-c2nn3c(c2Cl)CCCC3)c1NC(=O)C1CCCCC1 [Compound 7] | 10 (10: 100%) | 10 (10: 100%) | 
5 | N#Cc1cnn(-c2nn3c(c2Cl)CCCC3)c1NC(=O)CC1CCCC1 [Compound 29] | 10 (10: 100%) | 10 (10: 100%) | 
6 | CC1(C(=O)Nc2c(C#N)cnn2-c2nn3c(c2Cl)CCCC3)CC1 [Compound 3] | 10 (10: 100%) | 10 (10: 100%) | 
7 | CN(C(=O)CC1CC1)c1c(C#N)cnn1-c1nn2c(c1Cl)CCCC2 [Compound 1, Methyl N-(1-(3-chloro-4,5,6,7-tetrahydropyrazolo[1,5-a]pyridin-2-yl)4-cyanopyrazol-5-yl)-2-cyclopropyl Acetoamide] |  |  | herbicidal efficacy, Amaranthus retroflexus ([3]; 5g a.i./10a): 10 (10: 100%); herbicidal efficacy, Amaranthus retroflexus ([3]; 10g a.i./10a): 10 (10: 100%); herbicidal efficacy, Chenopodium album ([4]; 5g a.i./10a): 10 (10: 100%); herbicidal efficacy, Chenopodium album ([4]; 10g a.i./10a): 10 (10: 100%); herbicidal efficacy, Digitaria ciliaris ([5]; 5g a.i./10a): 9 (9: 90% to less than 100%); herbicidal efficacy, Digitaria ciliaris ([5]; 10g a.i./10a): 10 (10: 100%)
8 | N#Cc1cnn(-c2nn3c(c2Cl)CCCC3)c1NC(=O)CCC1CC=CCC1 (centres unmarked) [Compound 31] | 10 (10: 100%) | 10 (10: 100%) | 
